From patent publication US20180291378A1, “METHODS AND COMPOSITIONS FOR PROMOTING HAIR GROWTH” (THE TRUSTEES OF COLUMBIA UNIVERSITY IN THE CITY OF NEW YORK, priority 2015, published 2018)

Legend:
C57/B6 mice in telogen = test: Anagen induction by topical treatment of shaved wildtype mice in telogen; type: in vivo, mouse; settings: for days of treatment until treated follicles re-initiate anagen: 7 week old mice, treated for 24 days; for mice displaying skin darkening and hair growth within 10 days of starting treatment: 8.5 week old mice treated for 5 days
From the text: It was hypothesized that inhibition of JAK-STAT signaling promotes entry into the hair cycle in mice. To determine the onset of anagen, backskin hairs were trimmed with an electric shaver, and entry of HF into anagen was observed by the appearance of darkening skin and by hair regrowth. For the hair cycle experiments described in FIG. 1A, biopsies were taken from 2 mice/time point, and the experiment was replicated on 3 sets of littermates. For the experiments described in supp. FIGS. 1C&D, 3-4 mice were used per group (7 week vs. 8.5 week), and the experiment was replicated 3 times. […] The experiment presented in FIG. 1E was independently replicated once, with 3 mice/condition. The experiments described in FIG. 2A, 3 mice/genotype were utilized, and the experiment was replicated in 2 sets of littermates.
Ruxolitinib (INCB018424) was purchased from ChemieTek (catalog number CT-INCB). […] Hedgehog agonist (SAG) was purchased from EMD Millipore (catalog number 566660). JAK-STAT inhibitors were dissolved in DMSO and used at 2-3% for in vivo experiments, as indicated, and 400 nM for in vitro experiments. SAG was used at 120 uM, as described in Paladini et al (2).

[1] = tested on: hair germ compartment (P-cad+); test: Hair germ proliferation (Ki67 / EdU) in treated mouse skin; type: in vivo
Experimental: C57/B6 mice at 8.5 weeks of age were treated on half of the dorsal back with either topical vehicle control (left side) or JAK inhibitors (right side). Four hours post treatment each mouse received a single injection of 20 mg/kg 5-ethynyl-2′-deoxyuridine (EdU) (Invitrogen). One hour after injection, skin was harvested, fixed and stained using the Click-iT EdU Alexa Fluor 488 Imaging Kit (Life Technologies) per manufacturer's instructions, and co-stained for P-cadherin. Experiment was replicated once, with 1 mouse/time point.

[2] = tested on: whole skin gene expression; test: Whole skin microarray / IPA pathway analysis after 4 days of treatment; type: in vivo, mouse; settings: 8.5-week-old mice
Experimental: Gene expression profiling was performed on whole skin biopsies from 12 B6/C57 female mice, 8.5 weeks of age. Biopsies were taken from dorsal skin at day 0 (T0) of the experiment. […] Quality control was performed using the affy analysisQC package from http://arrayanalysis.org/. […] Data were normalized using the GCRMA method as implemented in affyAnalysisQC. LIMMA was used with a multilevel model to identify genes that were differentially expressed between samples at T5 and T0 for each treatment group (DMSO, RUXO, and TOFA) using a threshold of fold change=1.5 and P<0.05.
Total RNA was extracted using the Qiagen RNAeasy micro kit. The Ovation RNA Amplification kit (Nugen) was used to generate amplified cDNA for microarray analysis. Arrays used were Affymetrix mouse 430 2.0, hybridized at the CUMC microarray facility. qPCR analysis was performed on the ABI 7300 cycler. Primers sequences available in Table 2.

[3] = tested on: human fetal scalp skin grafts; test: Human skin grafting assay on SCID mice; type: in vivo; settings: daily topical application, 4 weeks
Experimental: The mice were bandaged, and the grafts were left to recover for 6 weeks. […] Grafts were treated daily with topical application of vehicle control, ruxolitinib or tofacitinib. Treatment continued for 4 weeks, and pictures were taken every 3-5 days. Experiments were performed with skin from 3 separate donors. Quantification of hair growth was performed using ImageJ. Taking advantage of the fact that the donor hair was dark and the grafted mouse was white, the intensity of pigmentation was measured as a proxy for density of HF. Since control and experimental treatments were performed on the same graft, each image allows for the direct comparison between vehicle- and drug-treated skin. Darker regions are given a lower value than bright regions. Ratio was calculated by averaging the intensity values for the control treated side, by the intensity values for drug-treated side, accounting for pre-treatment differences in hair growth on the graft and for changes in hair density occurring over time.

[4] = tested on: human adult scalp hair follicles; test: Human hair follicle organ culture assay; type: cell-based
Experimental: Adult human follicles were microdissected from occipital skin under sterile conditions as previously described.
Media was replaced every 2 days, and images of individual follicles were taken every 2 days. Analysis of the growth rate of each follicle was performed using Image J.

human DP spheres = test: Patch assay with dermal papilla spheres; type: in vivo; settings: DP spheres treated at 400 nM
Experimental: DP cells were grown in spheres as previously described (35). […] Each hanging drop contained 1000 cells, which aggregated to form DP spheroids after 24 hours. 48 hours after plating, 500 spheres in each condition were collected for use in the patch assay. Each experiment was performed with cells derived from a single individual, and four separate experiments were conducted. Keratinocytes were isolated from new born mice following the protocol outlined by Lichti et al (63). Cells were cultured in dkSFM for 2-4 days prior to being harvested for the patch assay. 1×10^6 newborn murine keratinocytes were then mixed together with 500 human DP spheres in each condition, and injected subdermally into dorsal skin of a nude mouse. 12 days after performing the injections, cysts had developed in the dermis, some which contained HF and hair fibers. These cysts were collected, photographed and then digested in 0.35% collagenase. The digested slurries were spread onto microscope slides and hair fiber counts were manually performed under a stereo microscope.

[5] = tested on: human DP spheres gene expression; test: DP spheres microarray / GEDI / gene set enrichment analysis; type: cell-based
Experimental: For the DP spheres microarray analysis, cells were prepared from three different donors, and Affymetrix human HG-U133 PLUS 2.0 arrays were hybridized at the CUMC genomics facility. Quality control and data normalization was performed as described above. For the organ culture experiment, 3 sets of repeats were performed, each times using HF derived from a single individual.
For the DP spheres microarray analysis, total RNA was extracted from DP spheres cultured in DMSO, ruxolitinib or tofacitinib from each of the three donors using the Qiagen RNAeasy micro kit. The Ovation RNA Amplification kit (Nugen) was used to generate amplified cDNA for microarray analysis. LIMMA was used with a linear model treating both treatment and the blocking factor, donor, as fixed effects. Contrasts of interest between treatments were used to identify genes that were differentially expressed between pairs of treatments for the treatments DMSO, RUXO, and TOFA. A threshold of absolute fold change=1.5 and P<0.05 was employed. For GSEA, the HG_U133_Plus_2.0 chip annotation file downloaded from ftp.broad.mit.edullpub/gsedannotations/was used to annotate the Affymetrix ProbeSets and to remove duplicate ProbeSets for a given Gene Symbol. Duplicates were removed based on the maximum absolute fold-change observed for each Gene Symbol. Pre-ranked gene lists were generated for each treatment contrast of interest, using the moderated t-statistics returned by LIMMA. GSEA was performed on these lists to identify KEGG pathways overrepresented in each list (ES p-value 0.01).
The gene set enrichment analysis comparing tofacitinib-treated and control cells was performed by generating a list of all detected transcripts ranked by differential expression (p-value), and direction of fold change (up or down). This ranked list was tested for enrichment of the union of territories 2 and 4 (gene list provided in Table 3) as described previously (35). A null distribution for computing the normalized enrichment score (NES) and its associated p-value was obtained by label shuffling to randomize the gene rankings. These randomized sets were then used to compute null enrichment scores over 5000 iterations to generate a null distribution. The observed leading edge enrichment score was normalized to this distribution and a 2-tailed p-value was generated for this NES.

STAT1, STAT3 and STAT5 = test: OSM-induced STAT activation in cultured keratinocytes; type: cell-based, mouse
STAT3 and STAT5 = STAT3 and STAT5 activation in whole skin treated in vivo; parameters: species or system mouse
mouse keratinocytes = test: Colony forming assay with mouse keratinocytes harvested at telogen; type: cell-based
OSM-Rβ [6] = test: OSM-Rβ expression in mouse skin treated in vivo during telogen; settings: whole skin biopsies daily over 5 days of treatment
OSM-Rβ [7] = test: OSM-Rβ expression in cultured mouse keratinocytes; type: cell-based; settings: recombinant mouse OSM at 20 ng/ml

## N#CC[C@H](C1CCCC1)n1cc(-c2ncnc3[nH]ccc23)cn1 [ruxolitinib]
C57/B6 mice in telogen
  days of treatment until treated follicles re-initiate anagen: ≤ 18 days
  mice displaying skin darkening and hair growth within 10 days of starting treatment: ~90%

## C[C@@H]1CCN(C(=O)CC#N)C[C@@H]1N(C)c1ncnc2[nH]ccc12 [tofacitinib]
C57/B6 mice in telogen
  days of treatment until treated follicles re-initiate anagen: ≤ 21 days
  mice displaying skin darkening and hair growth within 10 days of starting treatment: ~90%
C57/B6 mice in telogen; topical, half of dorsal back, treated three weeks
  re-entry into the hair cycle: rapid re-entry into the hair cycle, with kinetics similar to the Shh agonist
[1]; after three treatments, skin harvested 5 hours after treatment
  Edu+ cells within the hair germ (P-cadherin+) compartment: clearly visible
[1]; mice in telogen treated 4 days
  proliferation within the hair germ compartment (P-cad+): Significant proliferation
[2]; T5 vs T0
  expression of hair cycle regulators Shh and Prom1: significantly upregulated
  pathways enriched by only one of the drug treatments: pathways involved in cell motility and migration, such as Rho and integrin signaling
[2]; T5 vs T0, not in vehicle
  pathways enriched in both drug treatments (IPA): melanogenesis and the Wnt pathway were enriched
[3]
  HF growth on graft compared to controls: denser HF growth
[4]; 400 nM, follicles from a single donor
  length of hair shafts / rate of hair elongation: significantly increased length of hair shafts
[4]; follicles from two individuals, did not reach statistical significance
  growth rate of anagen, repeat experiment: increased the growth rate of anagen
Human DP spheres
  inductivity of DP spheres: did enhance inductivity
Human DP spheres; with neonatal mouse keratinocytes in nude mice
  size and numbers of HFs induced: larger and significantly greater numbers of HFs
[5]
  expression of LEF1, WIF1 and CD133: upregulate
  expression of TGβ2, BMP6 and LEF1: upregulated
[5]; treated vs untreated spheres
  gene set enrichment of territory T4: significantly enriched
[5]; treated vs untreated spheres, overlap only marginally significant
  gene set enrichment of territory T2: enriched
[5]; vs control
  expression of FGFR1, ACVRL1, IGFR1, OSMR and PTGFR (region 1): repressed in both treatments but lower in tofacitinib treatment
  expression of members of the TGFβ pathway and the BMP pathway (regions 3 and 4): upregulated
  expression of pro-apoptotic genes BAX, BCL2L11 and CASP12 (region 2): downregulated
  key regulators of the WNT pathway (LEF1) and members of the NOTCH pathway: overrepresented
STAT1, STAT3 and STAT5; in vitro cultured keratinocytes
  effect on OSM-induced STAT1, STAT3 and STAT5 activation: efficiently abrogated
STAT3 and STAT5
  STAT3 and STAT5 activation: effective inhibition
Mouse keratinocytes; added to OSM
  effect on OSM growth inhibition: reversed partially
Mouse keratinocytes; drug alone
  number of keratinocyte colonies: increase the number of keratinocyte colonies
OSM-Rβ [6]
  OSM-Rβ expression, qRT-PCR: Downregulation

B1: OSM: oncostatin M, secreted cytokine of the IL-6 family; recombinant mouse OSM used at 20 ng/ml (protein, UniProt P53347 25-206, looked up)
Oncostatin-M: NRGCSNSSSQLLSQLQNQANLTGNTESLLEPYIRLQNLNTPDLRAACTQHSVAFPSEDTLRQLSKPHFLSTVYTTLDRVLYQLDALRQKFLKTPAFPKLDSARHNILGIRNNVFCMARLLNHSLEIPEPTQTDSGASRSTTTPDVFNTKIGSCGFLWGYHRFMGSVGRVFREWDDGSTRSRR
STAT1, STAT3 and STAT5; within 10 minutes of OSM treatment
  activation of STAT1, STAT3 and STAT5 transcription factors: activated
Mouse keratinocytes; OSM alone
  effect on keratinocyte colony growth: growth inhibitory effect
OSM-Rβ [7]
  expression of OSM-Rβ: upregulated
